According to the supplement of paper PMC10883282:

Tests used:
Test in all cases: relative viability vs DMSO control (72 h) (fraction); higher = more viable cells
[1] = system: A204
Procedure, shortened: (§1)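 Relative viability is percent growth read by ATPLite and averaged over up to triplicate wells. Sarcoma cells were seeded in 384-well plates to reach 80–90% confluence and given 2.5 µl of serially diluted compound after 24 h, from source plates of 10 mM to 0.0002 mM. Incubation lasted 72 h at 37 °C, 5% CO2, with 0.1% DMSO vehicle and a 5 µM positive control, and the data were rescaled so 1 equals full and 0 equals none.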

[2] = system: KHOS-NP
Procedure, shortened: as §1

[3] = system: SW872
Procedure, shortened: as §1

[4] = system: HS729
Procedure, shortened: as §1

[5] = system: SW684
Procedure, shortened: as §1

C[C@H](Nc1ncnc2nc[nH]c12)c1cc2cccc(Cl)c2c(=O)n1-c1ccccc1 [Duvelisib]
relative viability
Settings	[1]	[2]	[3]	[4]	[5]
0.00017 µM	1.1	1.09	1.11	1.06	1.15
0.00051 µM	1.09	1.09	1.1	1.09	1.11
0.00152 µM	1.07	1.1	1.08	1.03	1.09
0.00457 µM	1.096	1.1	1.11	1.03	0.899
0.01372 µM	1.08	1.121	1.08	1	0.838
0.04115 µM	1.06	1.09	1.03	0.987	0.722
0.1235 µM	1.01	1.07	1.02	1.02	0.683
0.3704 µM	0.908	1.07	0.897	0.891	0.633
1.111 µM	0.761	1.08	0.813	0.863	0.543
3.333 µM	0.555	1.07	0.666	0.726	0.501
10 µM	0.445	1.07	0.519	0.606	0.453

CC1(C)CC=C(c2nc(C3CC(C)(C)OC(C)(C)C3)ccc2NC(=O)c2nc(C#N)c[nH]2)CC1 [Edicotinib]
relative viability
Settings	[1]	[2]	[3]	[4]	[5]
0.00017 µM	1.08	1.03	1.01	1	1.13
0.00051 µM	1.06	1.03	0.994	0.931	1.14
0.00152 µM	1.06	1.04	0.992	0.953	1.16
0.00457 µM	1.05	1.04	1	0.909	1.15
0.01372 µM	1.08	1.03	1.01	0.89	1.13
0.04115 µM	1.06	1.04	0.997	0.902	1.1
0.1235 µM	1.03	1.05	1.01	0.924	1.11
0.3704 µM	1.05	1.04	1.04	0.9	1.17
1.111 µM	1.04	1.05	1.06	0.894	1.24
3.333 µM	1.07	0.996	1.07	0.933	1.14
10 µM	1.08	0.974	1.08	0.999	1.16

CC(C)(O)CNc1nc(Nc2ccnc(C(F)(F)F)c2)nc(-c2cccc(C(F)(F)F)n2)n1 [Enasidenib]
relative viability
Settings	[1]	[2]	[3]	[4]	[5]
0.00017 µM	1.12	1.09	1.04	0.966	1.22
0.00051 µM	1.08	1.1	1.07	0.974	1.21
0.00152 µM	1.11	1.091	1.08	0.995	1.18
0.00457 µM	1.08	1.09	1.07	1	1.179
0.01372 µM	1.1	1.08	1.08	1.002	1.19
0.04115 µM	1.11	1.08	1.06	0.985	1.2
0.1235 µM	1.1	1.08	1.06	1.02	1.2
0.3704 µM	1.11	1.06	1.068	0.941	1.17
1.111 µM	1.11	1.04	1.07	0.994	1.21
3.333 µM	0.99	1.06	1.07	1.01	1.11
10 µM	0.7231	1.05	1.06	0.928	1.01

COC(=O)N[C@@H](C)CNc1nccc(-c2cn(C(C)C)nc2-c2cc(Cl)cc(NS(C)(=O)=O)c2F)n1 [Encorafenib]
relative viability
Settings	[1]	[2]	[3]	[4]	[5]
0.00017 µM	0.99	1.01	0.96	1.069	0.979
0.00051 µM	0.991	1.01	0.952	1.077	1
0.00152 µM	1	1.03	0.96	1.07	1.04
0.00457 µM	0.982	1.02	0.902	0.993	1.04
0.01372 µM	0.973	1.01	0.729	0.994	1.04
0.04115 µM	0.988	0.99	0.599	0.995	1.04
0.1235 µM	1	1.03	0.555	1.04	1.05
0.3704 µM	0.96	0.984	0.524	0.975	1.01
1.111 µM	0.838	0.851	0.459	0.821	0.943
3.333 µM	0.602	0.528	0.335	0.69	0.824
10 µM	0.574	0.435	0.295	0.719	0.834

CN1CCN(c2ccc(C(=O)Nc3n[nH]c4ccc(Cc5cc(F)cc(F)c5)cc34)c(NC3CCOCC3)c2)CC1 [Entrectinib]
relative viability
Settings	[1]	[2]	[3]	[4]	[5]
0.00017 µM	1.05	1.08	1.11	1.06	1.14
0.00051 µM	1.06	1.1	1.09	0.975	1.17
0.00152 µM	1.04	1.07	1.1	0.931	1.14
0.00457 µM	1.06	1.08	1.07	0.948	1.2
0.01372 µM	1.09	1.06	1.05	0.946	1.15
0.04115 µM	1.04	1.05	1.05	0.959	1.15
0.1235 µM	1.02	1.04	1.03	0.925	1.16
0.3704 µM	1.05	1.03	0.961	0.919	1.12
1.111 µM	1.04	1.01	0.887	0.832	1.1
3.333 µM	0.865	0.98	0.66	0.665	0.971
10 µM	0.228	0.602	0.218	0.382	-0.0109
